# Laboratory results as given in US6689758B1, “Gene therapy method” (SmithKline Beecham Corporation, priority 1998, dated 2004).
# Columns and labels:
# [1] = system: human cell co-culture system; assay: In vitro angiogenesis co-culture system (tubule formation, PECAM-1 staining); type: cell-based; settings: 20 μM, negative control; 11 days co-culture
# Procedure: Egr-1 under the control of the hCMV promoter (Houston et al, Arterioscler. Thromb. Vasc. Biol., 19; 281-289, 1999) was transfected into a human cell co-culture system designed to measure angiogenesis in vitro. The angiogenesis kit (TCS Biologicals) was used as described according to the manufacturer's instructions using VEGF protein (2 ng/ml) and suramin (20 μM) as positive and negative controls respectively for angiogenesis.
# Optimisation of transfection in the co-culture system was performed using pGL3 control luciferase (Promega) with 1.0 μg and 0.5 μg CMV-β, gal as a normalising plasmid for transfection control. Two ratios of lipid: DNA (v/w) were used; 2:1 and 4:1 (FIG. 3a.). CMV Egr-1 DNA was transfected at 0.5, 1.0, 1.5 and 2.5 μg per well in triplicate in a 24 well microtitre plate using Mirus Transit reagent (Cambridge Biosciences) at a ratio of 2:1 v/w DNA. VEGF protein positive control and suramin negative control was added to triplicate wells. After 11 days co-culture angiogenesis was determined by staining of cells for the endothelial cell marker PECAM-1 and visualisation using BCIP/NBT substrate.
# Representative images of tubule formation using all four doses of Egr-1 expression plasmid together with VEGF (positive control) and suramin (negative control) were captured and processed by image analysis using Quantimet 600 image analyser and associated software. […]
# rat excisional wounds = assay: Rat excisional wound healing model after particle mediated gene transfer; type: in vivo, Sprague Dawley rats
# Procedure: Eighteen male Sprague Dawley rats weighing 250g were anaesthetised under isoflorane in a 2:1 mixture of oxygen/nitrous oxide. Two sites of transfection (8 cm from the skull, 1.5 cm either side of the spine) on the rat dorsum were prepared by firstly clipping the pelt then shaving with a razor. Two transfections were carried out per wound site, 8 mm apart, by accelerating plasmid/gold complexes of either Egr-1 or β-galactosidase into the skin at 350 psi. Total amount of DNA was not less than 1.7 μg per transfection (equalling 3.4 μg per wound). […]
# Wound area was determined using image analysis and the healing expressed as a increase in percent of original wound area. Statistical significances of differences between treated and control groups were evaluated using a […] Mann-Whitney test.
# Each wound per time point after dissection was bisected horizontally. […] Using this histological stain, key markers of wound healing was assessed including re-epithelialisation and collagen content and comparisons made between treated and control sections.
# Immunocytochemistry and image analysis was performed in order to quantify the differences seen using routine histology. […] Area and intensity of staining was measured using image analysis and plotted as a graph. Statistical significant differences between treated and control groups were evaluated using a Man-Whitney nonparametric test.
# HeLa cells = assay: Transient transfection of reporter plasmid pSVSRE5 with pFA-MEK1 into HeLa cells; type: cell-based; settings: co-transfected pFA-MEK1 vs pFA-dbd
# Excerpt: We have concentrated on SRE5. The novel SRE 5 with its associated Ets transcription factor binding sites was synthesised as a double stranded oligonucleotide and inserted into the Nhe I site upstream of a SV40 minimal promoter vector (pSV40). SRE5 (SEQ ID NOS:7-8) has the sequence: […]
# The resulting reporter plasmid pSVSRE5 was transiently transfected into HeLa cells together with plasmids pFA-dbd (construct encoding the Gal4 DNA binding domain (dbd) ) or pFA-MEK1 (construct encoding a fusion protein of the Gal4 DNA binding domain (dbd) and the kinase domain of the MAP kinase kinase MEK1). The Gal4-MEK1 fusion protein is constitutively active and phosphorylates Elk1 and SRF, bound to SRE5.
molecule,measurement,setting,value
Cc1ccc(C(=O)Nc2ccc(S(=O)(=O)O)c3cc(S(=O)(=O)O)cc(S(=O)(=O)O)c23)cc1NC(=O)c1cccc(NC(=O)Nc2cccc(C(=O)Nc3cc(C(=O)Nc4ccc(S(=O)(=O)O)c5cc(S(=O)(=O)O)cc(S(=O)(=O)O)c45)ccc3C)c2)c1 [suramin],tubule formation,[1],Decreased tubule formation
β-galactosidase,collagen I immunostaining (image analysis),"rat excisional wounds; 2 days post wounding, β-galactosidase compared to Egr-1",significantly more collagen
same,wounds with complete re-epithelialisation,rat excisional wounds; 6 days post wounding,0%
"SRE5: novel SRE 5 with associated Ets sites, double stranded oligonucleotide inserted upstream of SV40 minimal promoter (reporter plasmid pSVSRE5) (nucleic acid, double-stranded insert cloned upstream of SV40 minimal promoter in reporter plasmid, further chemistry not given here) chain 1: AGGCTGCGACCCGGAAATGCCATATAAGAAGCAGGAAGGATCCCCCCGCCGG chain 2: AGCCGGCGGGGGGATCCTTCCTGCTTCTTATATGGCATTTCCGGGTCGCAGC",activation by the presence of MEK1 (reporter),HeLa cells,3 fold
